Test: Dissolution of olaparib solid dispersion versus olaparib compound powder in water under sink conditions
Assay type: physicochemical
Conditions: 37° C., 100 rpm
Description: A solid dispersion was prepared from Olaparib and copolyvidone VA64 by solvent evaporation. That is, olaparib and copolyvidone VA64 were simultaneously dissolved in ethanol/acetone (25/75, v/v), evaporated off the organic solvent under reduced pressure, dried in a vacuum drying oven, and ground and pulverized through a 60 mesh screen to be ready for tableting. For the obtained solid dispersion, in water under sink conditions at 37° C. and 100 rpm, the pharmaceutically active ingredient was dissolved out 90% or more in 30 min. However, under the same conditions, the olaparib compound powder was dissolved out less than 60% in 2h.

dissolved out in 2h: less than 60%
Compound: O=C(c1cc(Cc2n[nH]c(=O)c3ccccc23)ccc1F)N1CCN(C(=O)C2CC2)CC1 [olaparib compound powder, 1-(cyclopropylcarboxyl)-4-[5-[(3,4-dihydro-4-oxo-1-phthalazinyl)methyl]-2-fluorobenzoyl]piperazine]

From patent US20200108008A1, “OLAPARIB ORAL SUSTAINED AND CONTROLLED RELEASE PHARMACEUTICAL COMPOSITION AND USES THEREOF” (SHANGHAI INSTITUTE OF MATERIA MEDICA, CHINESE ACADEMY OF …, priority 2016, published 2020)
